In patent US12691182B2, “Maytansinoid derivatives, conjugates thereof, and methods of use” (priority 2016, dated 2026):
pIC50: −log10 of the molar value.

Key:
SKBR3 (Her2+) cells = experiment: In vitro cytotoxicity assay, SKBR3 cells (CCK8 viability); type: cell-based; settings: naked payload, SKBr-3 cells, 3 days; for SKBr-3 % kill: % kill reported for the highest dose; for pIC50: CCK8
Method: (§1) In this Example, the ability of various antibody-drug conjugates and naked payloads to kill antigen-expressing tumor cells in vitro was assessed.
SKBR3 (Her2+) cells were seeded in 96 well plates at 8000 cells per well in complete growth media and grown overnight. For cell viability curves, serially diluted conjugates or naked payloads were added to the cells at final concentrations ranging from 100 nM to 5 pM and incubated for 3 days. To measure viability, cells were incubated with CCK8 (Dojindo) for the final 2 hours and the absorbance at 450 nm (OD450) was determined on a Victor (Perkin Elmer). Background OD450 levels determined from digitonin (40 nM) treated cells were subtracted from all wells and viability is expressed as a percentage of the untreated controls. IC50 values were determined from a four-parameter logistic equation over a 10-point response curve (GraphPad Prism). […] All curves and IC50 values are corrected for payload equivalents. The plot of % Cell Viability vs. Log 10 [M]
(§2) All IC50s are expressed in nM concentration and % kill is reported for the highest dose. All curves and IC50 values are corrected for payload equivalents. The plot of % Cell Viability vs. Log 10 [M]

C4-2 (STEAP2+) cells = experiment: In vitro cytotoxicity assay, C4-2 cells (CellTiter-Glo viability); type: cell-based; settings: naked payload, 5 days; for C4-2 % kill: % kill reported for the highest dose; for pIC50: CellTiter-Glo
Method: as §1
C4-2 (STEAP2+) cells were seeded in 96 well plates at 4000 cells per well in complete growth media and grown overnight. For cell viability curves, serially diluted conjugates or naked payloads were added to the cells at final concentrations ranging from 100 nM to 5 pM and incubated for 5 days. To measure viability, cells were incubated with CellTiter-Glo reagents for 5 minutes and luminescence was determined on a Victor plate reader (PerkinElmer). IC50 values were determined from a four-parameter logistic equation over a 10-point response curve (GraphPad Prism).
as §2

Row | Molecule | SKBr-3 % kill (SKBR3 (Her2+) cells) | pIC50 (SKBR3 (Her2+) cells) | C4-2 % kill (C4-2 (STEAP2+) cells) | pIC50 (C4-2 (STEAP2+) cells)
1 | COc1cc2cc(c1Cl)N(C)C(=O)CC(OC(=O)Nc1ccc(Cl)cc1N)C1(C)OC1C(C)C1CC(O)(NC(=O)O1)C(OC)C=CC=C(C)C2 (centres unmarked) [Compound 30b, Maytan-3-O-carbamoyl-N-(4-chloro-2-amino)benzene] | **** (**** indicates % kill greater than, or equal to, 95 and less than 99) | 9.00 to 10.00 | * (* indicates % kill less than 85) | ≤ 8.00
2 | COc1cc2cc(c1Cl)N(C)C(=O)CC(OC(=O)Nc1c(C)cccc1N)C1(C)OC1C(C)C1CC(O)(NC(=O)O1)C(OC)C=CC=C(C)C2 (centres unmarked) [Compound 30f, Maytan-3-O-carbamoyl-N-(6-methyl-2-amino)benzene] | ***** (***** indicates % kill greater than, or equal to, 99) | 9.00 to 10.00 | **** (**** indicates % kill greater than, or equal to, 95 and less than 99) | 8.00 to 9.00
3 | COc1cc2cc(c1Cl)N(C)C(=O)C[C@H](OC(=O)Nc1ccc(F)cc1N)[C@]1(C)O[C@H]1[C@H](C)[C@@H]1C[C@@](O)(NC(=O)O1)[C@H](OC)/C=C/C=C(\C)C2 [Compound 30g, Maytan-3-O-carbamoyl-N-(4-fluoro-2-amino)benzene] | ***** (***** indicates % kill greater than, or equal to, 99) | 9.00 to 10.00 | ***** (***** indicates % kill greater than, or equal to, 99) | 8.00 to 9.00
4 | COc1cc2cc(c1Cl)N(C)C(=O)C[C@H](OC(=O)Nc1cc(N)ccc1F)[C@]1(C)O[C@H]1[C@H](C)[C@@H]1C[C@@](O)(NC(=O)O1)[C@H](OC)/C=C/C=C(\C)C2 [Compound 30h, Maytan-3-O-carbamoyl-N-(2-fluoro-5-amino)benzene] | **** (**** indicates % kill greater than, or equal to, 95 and less than 99) | 9.00 to 10.00 | * (* indicates % kill less than 85) | 8.00 to 9.00
5 | COc1ccc(NC(=O)O[C@H]2CC(=O)N(C)c3cc(cc(OC)c3Cl)C/C(C)=C/C=C/[C@@H](OC)[C@@]3(O)C[C@H](OC(=O)N3)[C@@H](C)[C@@H]3O[C@@]23C)c(N)c1 [Compound 30i, Maytan-3-O-carbamoyl-N-(4-methoxy-2-amino)benzene] | ***** (***** indicates % kill greater than, or equal to, 99) | 8.00 to 9.00 | ***** (***** indicates % kill greater than, or equal to, 99) | ≤ 8.00
6 | COc1cc2cc(c1Cl)N(C)C(=O)CC(OC(=O)Nc1cc(Cl)c(F)cc1N)C1(C)OC1C(C)C1CC(O)(NC(=O)O1)C(OC)C=CC=C(C)C2 (centres unmarked) [Compound 30o, Maytan-3-O-carbamoyl-N-(4-fluoro-5-chloro-2-amino)benzene] | ***** (***** indicates % kill greater than, or equal to, 99) | 9.00 to 10.00 | * (* indicates % kill less than 85) | ≤ 8.00
7 | COc1cc2cc(c1Cl)N(C)C(=O)C[C@H](OC(=O)Nc1cc(N3CCOCC3)c(N)cc1C)[C@]1(C)O[C@H]1[C@H](C)[C@@H]1C[C@@](O)(NC(=O)O1)[C@H](OC)/C=C/C=C(\C)C2 [Compound 30p, Maytan-3-O-carbamoyl-N-(4-amino-2-methyl-5-morpholin-4-yl)benzene] | * (* indicates % kill less than 85) | ≤ 8.00 | – | ≤ 8.00
8 | COc1cc2cc(c1Cl)N(C)C(=O)C[C@H](OC(=O)Nc1cc(N3CCCC3)c(N)cc1C)[C@]1(C)O[C@H]1[C@H](C)[C@@H]1C[C@@](O)(NC(=O)O1)[C@H](OC)/C=C/C=C(\C)C2 [Compound 30q, Maytan-3-O-carbamoyl-N-(4-amino-2-methyl-5-pyrrolidin-1-yl)benzene] | ***** (***** indicates % kill greater than, or equal to, 99) | 8.00 to 9.00 | *** (*** indicates % kill greater than, or equal to, 90 and less than 95) | ≤ 8.00
9 | Maytan-3-O-carbamoyl-N-(2-methyl-3-amino)benzene [Compound 30d] | **** (**** indicates % kill greater than, or equal to, 95 and less than 99) | 8.00 to 9.00 | **** (**** indicates % kill greater than, or equal to, 95 and less than 99) | 8.00 to 9.00
